Data as given in publication PMC4828318 (Journal of enzyme inhibition and medicinal chemistry, 2015).
Where two headings read alike, the source gives them in different places.

Assays:
HT-29 cells = test: MTT cell proliferation assay, HT-29; format: cell-based; conditions: Homo sapiens, HT-29, 24 h, read-out: IC50 (μM) HT-29
DNMT3B/3L = DNMT3B/3L (Homo sapiens, UniProt Q9UBC3); test: In vitro DNMT inhibition, radiometric filter-paper assay, DNMT3B/3L; format: biochemical
HepG2 cells = test: MTT cell proliferation assay, HepG2; format: cell-based; conditions: Homo sapiens, HepG2, 24 h, read-out: IC50 (μM) HepG2
DNMT3A/3L = DNMT3A/3L (Homo sapiens, UniProt Q9Y6K1); test: In vitro DNMT inhibition, radiometric filter-paper assay, DNMT3A/3L; format: biochemical
DNMT1 [1] = biological target: DNMT1 (Homo sapiens, UniProt P26358); test: In vitro DNMT inhibition, radiometric filter-paper assay, DNMT1; format: biochemical
Chain of DNMT1 (Homo sapiens, UniProt P26358) (P26358 whole entry): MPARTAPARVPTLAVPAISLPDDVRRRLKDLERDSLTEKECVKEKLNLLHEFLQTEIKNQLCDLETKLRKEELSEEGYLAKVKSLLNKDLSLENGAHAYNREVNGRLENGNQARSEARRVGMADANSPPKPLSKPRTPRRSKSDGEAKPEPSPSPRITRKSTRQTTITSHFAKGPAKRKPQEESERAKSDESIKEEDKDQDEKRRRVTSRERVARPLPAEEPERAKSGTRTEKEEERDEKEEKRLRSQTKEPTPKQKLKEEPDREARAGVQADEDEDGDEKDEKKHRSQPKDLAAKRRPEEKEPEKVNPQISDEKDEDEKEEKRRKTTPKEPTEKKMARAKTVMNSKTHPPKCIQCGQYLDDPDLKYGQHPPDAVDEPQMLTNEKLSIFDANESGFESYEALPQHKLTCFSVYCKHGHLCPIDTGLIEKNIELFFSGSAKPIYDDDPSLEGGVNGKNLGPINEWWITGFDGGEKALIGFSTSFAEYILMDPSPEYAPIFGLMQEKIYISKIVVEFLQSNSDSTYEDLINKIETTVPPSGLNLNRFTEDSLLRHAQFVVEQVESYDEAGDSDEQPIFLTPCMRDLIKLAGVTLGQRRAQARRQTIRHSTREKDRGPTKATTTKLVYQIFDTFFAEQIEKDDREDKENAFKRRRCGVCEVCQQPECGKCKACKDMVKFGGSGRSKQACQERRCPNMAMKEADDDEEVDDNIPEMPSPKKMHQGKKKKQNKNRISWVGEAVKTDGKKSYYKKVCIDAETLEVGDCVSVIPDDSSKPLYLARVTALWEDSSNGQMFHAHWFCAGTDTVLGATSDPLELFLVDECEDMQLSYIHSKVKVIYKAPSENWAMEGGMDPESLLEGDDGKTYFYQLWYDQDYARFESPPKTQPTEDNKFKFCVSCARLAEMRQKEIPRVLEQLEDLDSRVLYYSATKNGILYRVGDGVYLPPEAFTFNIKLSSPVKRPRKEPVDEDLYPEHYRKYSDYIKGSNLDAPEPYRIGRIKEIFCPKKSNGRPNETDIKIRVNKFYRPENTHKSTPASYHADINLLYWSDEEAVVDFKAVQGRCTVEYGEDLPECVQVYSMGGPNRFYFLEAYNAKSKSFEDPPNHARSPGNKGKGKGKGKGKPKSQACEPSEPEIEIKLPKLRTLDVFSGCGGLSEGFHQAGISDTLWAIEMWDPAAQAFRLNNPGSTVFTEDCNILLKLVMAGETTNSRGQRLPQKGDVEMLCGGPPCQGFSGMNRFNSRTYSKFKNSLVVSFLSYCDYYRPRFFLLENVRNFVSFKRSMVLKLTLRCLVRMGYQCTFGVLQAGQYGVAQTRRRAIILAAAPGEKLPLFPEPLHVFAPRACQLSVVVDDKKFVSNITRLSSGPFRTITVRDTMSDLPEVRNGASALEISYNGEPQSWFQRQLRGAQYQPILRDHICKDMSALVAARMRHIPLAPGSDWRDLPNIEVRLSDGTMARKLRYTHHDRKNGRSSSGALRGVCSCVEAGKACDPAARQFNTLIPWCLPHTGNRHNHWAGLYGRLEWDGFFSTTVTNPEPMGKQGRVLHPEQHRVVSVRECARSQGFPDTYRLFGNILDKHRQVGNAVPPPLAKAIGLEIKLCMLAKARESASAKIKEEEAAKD

DNMT1 [2] = conditions: rats, 21-week treatment period; protein expression ref 39; cited from earlier work
DNMT3B = conditions: rats, 21-week treatment period; protein expression ref 39; cited from earlier work

IC50 (DNMT1 [1]) [µM]	Structure (SMILES)	IC50 (HT-29 cells) [µM]	IC50 (DNMT3B/3L) [µM]	inhibition of DNMT3B at the highest test compound concentration (DNMT3B/3L; 300 μM)	IC50 (HepG2 cells) [µM]	IC50 (DNMT3A/3L) [µM]	inhibition of DNMT3A at the highest test compound concentration (DNMT3A/3L; 300 μM)	inhibition of DNMT1 at the highest test compound concentration (DNMT1 [1]; 300 μM)	IC50 (DNMT1 [1]; read-out: IC50 (μM) DNMT1, cell-free biochemical assay, NI = no inhibition at the maximum test compound concentration (300 μM)) [µM]	expression of the DNMT1 enzyme (DNMT1 [2])	expression of DNMT3B (DNMT3B)
	COc1ccc(/C=C/c2cc(OC)cc(OC)c2)cc1 [TMS, 3,4′,5-trans-trimethoxystilbene]	14	> 300	no significant inhibition	> 100	> 300	no significant inhibition	no significant inhibition	> 300		
> 300	Oc1ccc(/C=C/c2cc(O)cc(O)c2)cc1 [Resveratrol, 3,4′,5-trans-trihydroxystilbene]	130	65		54.9	105				did not significantly reduce	significant reduction
